Holding throughout (test): relative viability (nuclei count vs DMSO), 5 days (fraction); higher = more cells survive
Compound in the assay “Vemurafenib + Crizotinib”: CCCS(=O)(=O)Nc1ccc(F)c(C(=O)c2c[nH]c3ncc(-c4ccc(Cl)cc4)cc23)c1F [Vemurafenib] + C[C@@H](Oc1cc(-c2cnn(C3CCNCC3)c2)cnc1N)c1c(Cl)ccc(F)c1Cl [Crizotinib] (partner 1 µM)
In short, it runs like this: (§1)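 Each reported value is a median over duplicate plates. It expresses relative viability: treated-well nuclei count divided by vehicle-well nuclei count. Lung cancer cell lines in 1536-well plates were dosed by pin tool a day after seeding, alone with one drug or with a fixed anchor-drug dose plus five library-drug doses (not always all listed) in √10 steps, and nuclei were counted after 5 days.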

Compound in the assay “Alpelisib + Palbociclib”: Cc1nc(NC(=O)N2CCC[C@H]2C(N)=O)sc1-c1ccnc(C(C)(C)C(F)(F)F)c1 [Alpelisib] + CC(=O)c1c(C)c2cnc(Nc3ccc(N4CCNCC4)cn3)nc2n(C2CCCC2)c1=O [Palbociclib] (partner 0.5 µM)
In short, it runs like this:
as §1

Compound in the assay “Alpelisib + Phenformin”: Cc1nc(NC(=O)N2CCC[C@H]2C(N)=O)sc1-c1ccnc(C(C)(C)C(F)(F)F)c1 [Alpelisib] + N=C(N)NC(=N)NCCc1ccccc1 [Phenformin] (partner 250 µM)
In short, it runs like this: as §1

Compound in the assay “Alpelisib + Decitabine”: Cc1nc(NC(=O)N2CCC[C@H]2C(N)=O)sc1-c1ccnc(C(C)(C)C(F)(F)F)c1 [Alpelisib] + Nc1ncn([C@H]2C[C@H](O)[C@@H](CO)O2)c(=O)n1 [Decitabine] (partner 2 µM)
In short, it runs like this:
as §1

On to HCC-827, for which the relative viability with Vemurafenib + Crizotinib (first compound 0.03162 µM) amounted to 0.825; in the assay with Vemurafenib + Crizotinib (first compound 0.3162 µM) it was 0.924; with Vemurafenib + Crizotinib (first compound 1 µM) it was 0.863; in the assay with Alpelisib + Palbociclib (first compound 0.04 µM), 0.509; in the assay with Alpelisib + Palbociclib (first compound 0.1265 µM), 0.489; with Alpelisib + Palbociclib (first compound 0.4 µM), 0.485. Moreover, the relative viability with Alpelisib + Palbociclib (first compound 1.265 µM) was determined as 0.41; with Alpelisib + Palbociclib (first compound 4 µM), 0.386; in the assay with Alpelisib + Phenformin (first compound 0.04 µM), 0.424; with Alpelisib + Phenformin (first compound 0.1265 µM), 0.419; with Alpelisib + Phenformin (first compound 0.4 µM) it was 0.338; with Alpelisib + Phenformin (first compound 1.265 µM), 0.371. Besides, the relative viability with Alpelisib + Phenformin (first compound 4 µM) is 0.303; with Alpelisib + Decitabine (first compound 0.04 µM), 0.33; in the assay with Alpelisib + Decitabine (first compound 0.1265 µM), 0.346; with Alpelisib + Decitabine (first compound 0.4 µM), 0.347; with Alpelisib + Decitabine (first compound 1.265 µM), 0.302; with Alpelisib + Decitabine (first compound 4 µM) it was 0.254.

For the cell line NCI-H1650, the relative viability came out at 0.922 in the assay with Vemurafenib + Crizotinib (first compound 0.03162 µM); 1.08 with Vemurafenib + Crizotinib (first compound 0.3162 µM); 1.01 in the assay with Vemurafenib + Crizotinib (first compound 1 µM); 0.423 with Alpelisib + Palbociclib (first compound 0.04 µM); 0.275 with Alpelisib + Palbociclib (first compound 0.1265 µM); 0.403 in the assay with Alpelisib + Palbociclib (first compound 0.4 µM). Also, the relative viability is 0.29 in the assay with Alpelisib + Palbociclib (first compound 1.265 µM); 0.298 in the assay with Alpelisib + Palbociclib (first compound 4 µM); 0.405 in the assay with Alpelisib + Phenformin (first compound 0.04 µM); 0.408 with Alpelisib + Phenformin (first compound 0.1265 µM); 0.43 in the assay with Alpelisib + Phenformin (first compound 0.4 µM); 0.362 in the assay with Alpelisib + Phenformin (first compound 1.265 µM). In addition, the relative viability in the assay with Alpelisib + Phenformin (first compound 4 µM) amounted to 0.308; in the assay with Alpelisib + Decitabine (first compound 0.04 µM), 0.346; in the assay with Alpelisib + Decitabine (first compound 0.1265 µM) it was 0.365; in the assay with Alpelisib + Decitabine (first compound 0.4 µM), 0.389; with Alpelisib + Decitabine (first compound 1.265 µM), 0.345; with Alpelisib + Decitabine (first compound 4 µM), 0.362.

NCI-H1703: the relative viability with Vemurafenib + Crizotinib (first compound 0.03162 µM) turned out to be 0.605; in the assay with Vemurafenib + Crizotinib (first compound 0.1 µM), 0.449; in the assay with Vemurafenib + Crizotinib (first compound 0.3162 µM), 0.453; in the assay with Vemurafenib + Crizotinib (first compound 1 µM), 0.593.

Take LK-2: the relative viability with Vemurafenib + Crizotinib (first compound 0.03162 µM) turned out to be 0.193; in the assay with Vemurafenib + Crizotinib (first compound 0.1 µM) it was 0.202; in the assay with Vemurafenib + Crizotinib (first compound 0.3162 µM), 0.208; with Vemurafenib + Crizotinib (first compound 1 µM), 0.245; with Alpelisib + Palbociclib (first compound 0.04 µM), 0.653; with Alpelisib + Palbociclib (first compound 0.1265 µM) it was 0.645. The relative viability is 0.499 in the assay with Alpelisib + Palbociclib (first compound 0.4 µM); 0.322 with Alpelisib + Palbociclib (first compound 1.265 µM); 0.314 with Alpelisib + Palbociclib (first compound 4 µM); 0.4 with Alpelisib + Phenformin (first compound 0.04 µM); 0.233 in the assay with Alpelisib + Phenformin (first compound 0.1265 µM); 0.213 in the assay with Alpelisib + Phenformin (first compound 0.4 µM). The relative viability is 0.226 with Alpelisib + Phenformin (first compound 1.265 µM); 0.161 in the assay with Alpelisib + Phenformin (first compound 4 µM); 0.289 with Alpelisib + Decitabine (first compound 0.04 µM); 0.256 in the assay with Alpelisib + Decitabine (first compound 0.1265 µM); 0.254 in the assay with Alpelisib + Decitabine (first compound 0.4 µM); 0.198 with Alpelisib + Decitabine (first compound 1.265 µM). Also, the relative viability in the assay with Alpelisib + Decitabine (first compound 4 µM) was determined as 0.185.

Consider EBC-1, for which the relative viability turned out to be 0.188 in the assay with Vemurafenib + Crizotinib (first compound 0.03162 µM), 0.19 with Vemurafenib + Crizotinib (first compound 0.1 µM), 0.197 with Vemurafenib + Crizotinib (first compound 0.3162 µM) and 0.182 with Vemurafenib + Crizotinib (first compound 1 µM).

On to CAL-12T, for which the relative viability is 0.759 in the assay with Vemurafenib + Crizotinib (first compound 0.03162 µM); 0.644 with Vemurafenib + Crizotinib (first compound 0.1 µM); 0.592 in the assay with Vemurafenib + Crizotinib (first compound 0.3162 µM); 0.689 with Vemurafenib + Crizotinib (first compound 1 µM); 0.413 in the assay with Alpelisib + Palbociclib (first compound 0.04 µM); 0.38 with Alpelisib + Palbociclib (first compound 0.1265 µM). For the same cell line, the relative viability with Alpelisib + Palbociclib (first compound 0.4 µM) was determined as 0.647; in the assay with Alpelisib + Palbociclib (first compound 1.265 µM), 0.415; with Alpelisib + Palbociclib (first compound 4 µM), 0.355; in the assay with Alpelisib + Phenformin (first compound 0.04 µM), 0.545; with Alpelisib + Phenformin (first compound 0.1265 µM), 0.593; with Alpelisib + Phenformin (first compound 0.4 µM), 0.699. The relative viability is 0.543 with Alpelisib + Phenformin (first compound 1.265 µM) and 0.494 with Alpelisib + Phenformin (first compound 4 µM).

On to SW 900, for which the relative viability with Alpelisib + Palbociclib (first compound 0.04 µM) came to 0.536; with Alpelisib + Palbociclib (first compound 0.4 µM), 0.706; with Alpelisib + Palbociclib (first compound 1.265 µM), 0.483; with Alpelisib + Palbociclib (first compound 4 µM) it was 0.49; with Alpelisib + Phenformin (first compound 0.04 µM), 0.561; in the assay with Alpelisib + Phenformin (first compound 0.1265 µM), 0.525. For the same cell line, the relative viability was found to be 0.449 with Alpelisib + Phenformin (first compound 0.4 µM); 0.474 with Alpelisib + Phenformin (first compound 1.265 µM); 0.347 with Alpelisib + Phenformin (first compound 4 µM); 0.425 in the assay with Alpelisib + Decitabine (first compound 0.04 µM); 0.411 with Alpelisib + Decitabine (first compound 0.4 µM); 0.505 with Alpelisib + Decitabine (first compound 1.265 µM). In addition, the relative viability in the assay with Alpelisib + Decitabine (first compound 4 µM) is 0.379.

For NCI-H1563, the relative viability in the assay with Vemurafenib + Crizotinib (first compound 0.03162 µM) is 0.825; with Vemurafenib + Crizotinib (first compound 0.1 µM), 0.744; with Vemurafenib + Crizotinib (first compound 0.3162 µM), 0.823; in the assay with Vemurafenib + Crizotinib (first compound 1 µM), 0.852; in the assay with Alpelisib + Phenformin (first compound 0.04 µM), 0.637; with Alpelisib + Phenformin (first compound 0.1265 µM), 0.698. Moreover, the relative viability is 0.64 in the assay with Alpelisib + Phenformin (first compound 0.4 µM), 0.604 with Alpelisib + Phenformin (first compound 1.265 µM) and 0.589 with Alpelisib + Phenformin (first compound 4 µM).

For NCI-H522, the relative viability in the assay with Alpelisib + Palbociclib (first compound 0.04 µM) came out at 0.993; with Alpelisib + Palbociclib (first compound 0.1265 µM), 0.752; with Alpelisib + Palbociclib (first compound 0.4 µM) it was 0.87; in the assay with Alpelisib + Palbociclib (first compound 1.265 µM), 0.944; with Alpelisib + Palbociclib (first compound 4 µM) it was 0.657; in the assay with Alpelisib + Phenformin (first compound 0.04 µM), 0.573. In addition, the relative viability with Alpelisib + Phenformin (first compound 0.1265 µM) came out at 0.601; with Alpelisib + Phenformin (first compound 0.4 µM), 0.782; with Alpelisib + Phenformin (first compound 1.265 µM) it was 0.5; with Alpelisib + Phenformin (first compound 4 µM) it was 0.582; with Alpelisib + Decitabine (first compound 0.04 µM), 0.707; with Alpelisib + Decitabine (first compound 0.1265 µM), 0.741. Besides, the relative viability was 0.681 with Alpelisib + Decitabine (first compound 0.4 µM), 0.591 in the assay with Alpelisib + Decitabine (first compound 1.265 µM) and 0.61 in the assay with Alpelisib + Decitabine (first compound 4 µM).

NCI-H1623: the relative viability is 0.548 with Alpelisib + Phenformin (first compound 0.04 µM); 0.545 in the assay with Alpelisib + Phenformin (first compound 0.1265 µM); 0.516 in the assay with Alpelisib + Phenformin (first compound 0.4 µM); 0.532 in the assay with Alpelisib + Phenformin (first compound 1.265 µM); 0.426 with Alpelisib + Phenformin (first compound 4 µM).

For NCI-H1395, the relative viability worked out at 0.634 with Alpelisib + Palbociclib (first compound 0.04 µM); 0.651 with Alpelisib + Palbociclib (first compound 0.1265 µM); 0.649 with Alpelisib + Palbociclib (first compound 0.4 µM); 0.475 with Alpelisib + Palbociclib (first compound 1.265 µM); 0.589 with Alpelisib + Palbociclib (first compound 4 µM); 0.458 with Alpelisib + Phenformin (first compound 0.04 µM). Further, the relative viability with Alpelisib + Phenformin (first compound 0.1265 µM) is 0.395; with Alpelisib + Phenformin (first compound 0.4 µM), 0.46; in the assay with Alpelisib + Phenformin (first compound 1.265 µM), 0.374; with Alpelisib + Phenformin (first compound 4 µM), 0.434; with Alpelisib + Decitabine (first compound 0.04 µM) it was 0.747; with Alpelisib + Decitabine (first compound 0.1265 µM), 0.699. Further, the results for the relative viability in the assay with Alpelisib + Decitabine (first compound 0.4 µM), with Alpelisib + Decitabine (first compound 1.265 µM) and with Alpelisib + Decitabine (first compound 4 µM) were 0.75, 0.645 and 0.65, respectively.

For NCI-H2228, the relative viability is 0.428 in the assay with Vemurafenib + Crizotinib (first compound 0.03162 µM); 0.417 with Vemurafenib + Crizotinib (first compound 0.1 µM); 0.688 in the assay with Vemurafenib + Crizotinib (first compound 0.3162 µM); 0.469 with Vemurafenib + Crizotinib (first compound 1 µM); 0.748 with Alpelisib + Palbociclib (first compound 0.04 µM); 0.519 with Alpelisib + Palbociclib (first compound 0.1265 µM). Besides, the relative viability with Alpelisib + Palbociclib (first compound 0.4 µM) is 0.771; with Alpelisib + Palbociclib (first compound 1.265 µM), 0.332; with Alpelisib + Palbociclib (first compound 4 µM), 0.355; with Alpelisib + Phenformin (first compound 0.04 µM) it was 0.363; with Alpelisib + Phenformin (first compound 0.1265 µM), 0.284; with Alpelisib + Phenformin (first compound 0.4 µM), 0.306. For the same cell line, the relative viability with Alpelisib + Phenformin (first compound 1.265 µM) came out at 0.171; with Alpelisib + Phenformin (first compound 4 µM), 0.175.

Values taken from the supplement of paper PMC10307832.
